According to patent publication US8486885B2, “β-arrestin effectors and compositions and methods of use thereof” (Trevena, Inc., priority 2008, dated 2013):
Non-standard residues stand in square brackets, D forms with d. Residues, ends and D or L forms follow the SMILES beside them. Sar = CNCC(=O)O

Key:
Assay type in all cases: cell-based
[1] = target: T1, rat angiotensin 2 type 1 receptor (rat AT1aR) (Rattus norvegicus, UniProt P25095); assay: IP1 accumulation assay (IP-One Tb), rat AT1aR; details: cells expressing rat AT1aR
T1 construct: expressed in transfected cells
T1 sequence (P25095 1-359): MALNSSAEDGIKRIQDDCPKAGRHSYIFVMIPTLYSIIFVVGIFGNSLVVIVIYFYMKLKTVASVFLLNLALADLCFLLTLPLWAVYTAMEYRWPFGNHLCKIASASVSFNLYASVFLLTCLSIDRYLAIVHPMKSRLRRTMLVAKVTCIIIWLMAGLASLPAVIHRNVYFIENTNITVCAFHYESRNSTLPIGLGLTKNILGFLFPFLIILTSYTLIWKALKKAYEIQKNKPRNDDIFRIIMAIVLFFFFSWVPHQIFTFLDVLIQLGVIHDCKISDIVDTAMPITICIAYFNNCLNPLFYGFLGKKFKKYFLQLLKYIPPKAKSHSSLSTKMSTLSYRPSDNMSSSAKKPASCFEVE
Description: (§1) A secondary measure of G protein coupling efficacy was also performed. IP3 is generated by activation of phospholipase C by Gα-q. IP3 is degraded to IP1, which can be forced to accumulate in cells by blocking degradation with lithium chloride. Thus we measured accumulation of IP1 to determine ligand efficacy for G protein activation.
(§2) IP1 accumulation generated by human and rat angiotensin 2 type 1 receptor (human AT1R and rat AT1aR, respectively) was measured with IP-One Tb kits purchased from Cisbio and used per the manufacturer's instructions. Clonal stably transfected cell lines expressing human AT1TR or rat AT1aR were used for all experiments.
(§3) For assays, 4,000 cells were seeded per well in 384-well small-volume microplates in volumes of 20 uL and allowed to grow overnight at 37° C. in 5% CO2. Cell growth media was then replaced with stimulation buffer supplied by Cisbio containing 50 mM lithium chloride. Peptides TRV-120,001 through TRV-120,035 were dissolved in deionized water to a concentration of 1 mM. For agonist detection, peptides were then further diluted in stimulation buffer to add peptide to the cells to reach final concentrations ranging from 10 uM to 1 pM. […] Following addition of peptides, cells were incubated at 37° C. in 5% CO2 for 30 minutes and then lysed with detection reagents added per manufacturer's instructions.

[2] = target: T2, human angiotensin 2 type 1 receptor (human AT1R) (Homo sapiens, UniProt P30556); assay: IP1 accumulation assay (IP-One Tb), human AT1R; details: cells expressing human AT1R
T2 construct: expressed in transfected cells
T2 sequence (P30556 1-359): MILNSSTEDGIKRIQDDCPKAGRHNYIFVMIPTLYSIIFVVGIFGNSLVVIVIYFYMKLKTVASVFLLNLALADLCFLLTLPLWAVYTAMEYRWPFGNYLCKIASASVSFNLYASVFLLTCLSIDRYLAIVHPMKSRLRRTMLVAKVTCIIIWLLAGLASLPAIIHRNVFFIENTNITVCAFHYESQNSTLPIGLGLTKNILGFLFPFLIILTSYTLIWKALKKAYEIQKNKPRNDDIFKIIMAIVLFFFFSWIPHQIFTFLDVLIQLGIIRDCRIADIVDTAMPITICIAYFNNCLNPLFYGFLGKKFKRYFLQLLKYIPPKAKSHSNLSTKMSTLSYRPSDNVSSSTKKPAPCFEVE
Description: as §1, §2, §3

[3] = target: rat angiotensin 2 type 1 receptor (rat AT1aR) (Rattus norvegicus, UniProt P25095); assay: PathHunter β-arrestin-2 recruitment assay, rat AT1aR; details: PathHunter β-arrestin HEK293 cells
Description: (§4) The proximal event in β-arrestin function mediated by GPCRs is recruitment to receptors following ligand binding and receptor phosphorylation by GRK's. Thus, the measure of β-arrestin recruitment was used to determine ligand efficacy for β-arrestin function.
(§5) B-arrestin-2 recruitment to the human and rat angiotensin 2 type 1 receptor (human AT1R and rat AT1aR, respectively) was measured with the PathHunter™ β-arrestin assay (DiscoveRx Corporation, Fremont Calif.). Cells, plasmid(s), and detection reagent(s) were purchased from DiscoveRx, and assays were performed per manufacturer's instructions. Human AT1R and rat AT1aR were cloned into the pCMV-ProLink vector, verified by sequencing, and transfected into PathHunter β-arrestin HEK293 cells. Stably transfected clonal cell lines were selected with Hygromycin and G418. These clonal cell lines were used for all experiments.
(§6) For assays, 25,000 cells were seeded per well in 96-well microplates in volumes of 90 μL and allowed to grow overnight at 37° C. in 5% CO2. Peptides of the invention were dissolved in deionized water to a concentration of 1 mM. Peptides were then further diluted in assay buffer (Hank's balanced salt solution with 20 mM HEPES) to add peptide to the cells to reach final concentrations ranging from 10 μM to 1 pM. Cells were then incubated for 60 minutes at 37° C. in 5% CO2, followed by addition of 50 μL of PathHunter Detection Reagent to each well. The microplates were then incubated at room temperature for 60 minutes, and then luminescence was measured using a NOVOstar microplate reader purchased from BMG Labtech. B-arrestin-2 recruitment to receptors was measured as relative luminescence intensity expressed in arbitrary units.
Target sequence in this assay (P32121 whole entry partner, one chain of several): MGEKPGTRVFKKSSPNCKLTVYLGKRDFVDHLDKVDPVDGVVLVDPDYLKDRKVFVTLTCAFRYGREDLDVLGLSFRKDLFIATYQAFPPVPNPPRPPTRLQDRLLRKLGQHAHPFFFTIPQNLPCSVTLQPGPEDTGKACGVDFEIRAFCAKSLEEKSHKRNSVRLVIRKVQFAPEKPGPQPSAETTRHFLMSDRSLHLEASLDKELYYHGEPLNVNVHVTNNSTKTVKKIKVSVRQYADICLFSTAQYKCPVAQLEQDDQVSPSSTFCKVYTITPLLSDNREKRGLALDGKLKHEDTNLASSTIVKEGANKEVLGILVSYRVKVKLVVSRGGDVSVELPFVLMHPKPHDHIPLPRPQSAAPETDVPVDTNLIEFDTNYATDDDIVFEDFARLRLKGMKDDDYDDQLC

[4] = target: human angiotensin 2 type 1 receptor (human AT1R) (Homo sapiens, UniProt P30556); assay: PathHunter β-arrestin-2 recruitment assay, human AT1R; details: PathHunter β-arrestin HEK293 cells
Description: as §4, §5, §6
Target sequence in this assay (P32121 whole entry partner, one chain of several): as above

SMILES | rat AT1aR IP One EC50 (M) [1] | human AT1R IP One EC50 (M) [2] | rat AT1aR b-arrestin2 Max (%) [3] [%] | human AT1R b-arrestin2 Max (%) [4] [%] | EC50 ([4]; read-out: human AT1R b-arrestin2 EC50) [µM] | EC50 [1] [µM] | rat AT1aR IP One Max (%) [1] [%] | human AT1R IP One Max (%) [2] [%]
CNCC(=O)N[C@@H](CCCNC(=N)N)C(=O)N[C@H](C(=O)N[C@@H](Cc1ccc(O)cc1)C(=O)N[C@H](C)C(=O)N[C@@H](Cc1c[nH]cn1)C(=O)N1CCC[C@H]1C(N)=O)C(C)C [SEQ ID NO:53, Sar-Arg-Val-Tyr-D-Ala-His-Pro-NH2] | Inactive | inactive | 12.2 | 33.6 | 1.6 |  |  | 
CNCC(=O)N[C@@H](CCCNC(=N)N)C(=O)N[C@H](C(=O)N[C@@H](Cc1ccc(O)cc1)C(=O)N[C@H](C(=O)N[C@@H](Cc1c[nH]cn1)C(N)=O)C(C)C)C(C)C [SEQ ID NO:55, Sar-Arg-Val-Tyr-Val-His-NH2] (H-[Sar]RVYVH-NH2; N-terminus assumed) |  |  | 95.6 | 92.7 |  | 0.0068 | 98.8 | 97.6
